The subject of assay [1] is sensitized guinea pig trachea. In words: Schultz-Dale reaction, sensitized guinea pig trachea (tracheal spirals), ovalbumin challenge. The conditions noted are these: Cavia porcellus; for inhibition at 10 µM: 10^-5 M; for inhibition at 1 µM: 10^-6 M. The assay is classed as cell-based. The method, then: The antiallergy activity of the compounds of this invention was established by the Schultz-Dale reaction employing sensitized guinea pig trachea by the following procedure:
(§1) Guinea pigs weighing from about 275 to 325 g. are sensitized to ovalbumin. Three to four weeks later, tracheae are removed under CO2 anesthesia. Excess tissue is removed and each trachea is spirally cut and suspended under 6 g. tension in a tissue bath (37° C.) containing modified Tyrode's solution (pH 7.4) oxygenated with a 95 percent O2 -5 percent CO2 gas mixture. The Tyrodes composition (mmol) is: NaCl, 139.2; KCl, 2.7; MgSO4.7H2 O, 0.49; NaHCO3, 11.9; NaH2 PO4.H2 O, 0.4; CaCl2.2H2 O, 1.8 and glucose, 5.5. Tracheae are allowed to equilibrate for 90 minutes before exposure to agonists or drugs.
A response to histamine is elicited at two bath concentrations (1×10^-6 M and 1×10^-4 M). The lower concentration primes the tissue and is allowed a 5 minute contact period. The higher concentration (10 minute exposure) produces a maximal response for the tissue. In each case, the bath fluid is replaced and the tissue is washed two times with fresh Tyrode solution. Compounds tested are introduced into the bath to produce a 10^-4 M concentration twenty minutes after the second histamine treatment (subsequent testing at 10^-5 and 10^-6 M bath concentrations are employed in dose-response analyses). Ovalbumin (8 μg/ml) is introduced into the bath ten minutes later.
The contracture curve following antigen challenge is compared with the maximal histamine response at 10 minute time intervals up to 90 minutes and the responses are expressed as percentage inhibition. The area under the curve is calculated for each time period. […] The EC50 is calculated from the area under the curve values at 90 minutes to define the effective concentration of test compound which produces a 50 percent reduction in area under the curve compared to control tissues.

The test system of assay [2] is SRS-A. The conditions noted are these: J.Med.Chem. 20 371 (1977); cited from earlier work.
Assay [3] relates to guinea pig lung parenchyma strips. The assay can be described thus: Schultz-Dale reaction, guinea pig lung parenchyma strips, ovalbumin challenge. Type of assay: cell-based. To be noted: Cavia porcellus, 1 h, at 60 minutes, read-out: Parenchymal Strips % Inhibition at 60 minutes; for inhibition at 100 µM: 10^-4 M. The method, then: as §1
Following the same basic procedure, guinea pig lung parenchyma strips (25×3×3 mm) dissected along the distal edges of two different lobes are suspended under 1 g. tension in the tissue bath. Equilibration in the Tyrode solution is conducted for 45 minutes with complete solution changes at 15 minute intervals. Maximal contraction induced with histamine (50 μM) primes the tissue. Five minutes later, the bath fluid is exchanged two times and the tissues are allowed to equilibrate 15 minutes longer. The test compound is then introduced into the bath to give a 10^-4 M solution. Five minutes later the ovalbumin challenge (8 μg/ml) is given. The data is collected at ten minute intervals up to 60 minutes and analysed as with the guinea pig trachea technique.

The target in assay [4] is T1, (Cavia porcellus, UniProt Q2NNR5).
T1 construct: employing guinea pig ileal tissue; from tissue; host or cells: guinea pig ileum
T1 sequence (Q2NNR5 1-340): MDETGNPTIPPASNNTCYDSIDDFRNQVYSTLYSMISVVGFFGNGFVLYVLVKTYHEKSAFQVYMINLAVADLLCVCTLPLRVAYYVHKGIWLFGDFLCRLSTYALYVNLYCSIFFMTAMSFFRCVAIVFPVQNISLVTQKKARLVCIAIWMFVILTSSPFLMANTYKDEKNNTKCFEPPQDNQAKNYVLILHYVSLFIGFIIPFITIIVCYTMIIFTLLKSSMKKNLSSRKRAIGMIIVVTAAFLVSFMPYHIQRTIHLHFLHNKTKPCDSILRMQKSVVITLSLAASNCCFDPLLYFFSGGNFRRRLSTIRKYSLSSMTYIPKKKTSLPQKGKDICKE
In words: Schultz-Dale reaction, guinea pig ileal tissue, inhibition of leucotriene D4. The assay is classed as cell-based. To be noted: Schultz-Dale reaction employing guinea pig ileal tissue; read-out: pA2 as inhibitor of leucotriene D4 (converted).

Assay [5] has as its system anaphylactic tissue response. In words: anaphylactic tissue response / leucotriene activity of nitro substituted compounds. The assay is classed as cell-based.
The mark [6] stands for this setting: 1.5 h, 10^-4 M, at 90 minutes, read-out: Tracheal Spirals % Inhibition at 90 minutes.
[7] abbreviates: 1.5 h, 50 percent reduction in area under the curve at 90 minutes, read-out: Tracheal Spirals EC50.

pEC50: −log10 of the molar value. Where a name gives a salt, the structure may show the parent alone. Read-outs that look alike come from different tables or passages of the source.

Broadly, the inhibition is the change of the read-out against control, counted positive when it falls. As usually defined, the pEC50 is the negative decadic logarithm of the EC50, by convention in mol/L. On to `CCCc1c(OCC(O)CNc2cccc(NC(=O)C(=O)O)c2C#N)ccc(C(C)=O)c1O` (centres unmarked) [Example 8, [[[3-[3-(4-Acetyl-3-hydroxy-2-propylphenoxy)-2-hydroxypropyl]amino]-2-cyanophenyl]amino]oxoacetic acid sodium salt], for which the inhibition at 100 µM in assay [1] (setting [6]) turned out to be 63.5%. Also, in assay [1] (1.5 h, at 90 minutes), the inhibition at 10 µM came to 37.5% and the inhibition at 1 µM came out at 28.4%. In assay [1] (setting [7]), the pEC50 was 4.60.

For `CCCc1c(OCC(O)CNc2cccc(N)c2C#N)ccc(C(C)=O)c1O` (centres unmarked) [Example 6, 2-Amino-6-[[3-(4-acetyl-3-hydroxy-2-propylphenoxy)-2-hydroxypropyl]amino]benzonitrile], in assay [1] (setting [6]), the inhibition at 100 µM stood at 38.8%.

In the case of `CC(=O)c1ccc(OCC(O)COc2cccc([N+](=O)[O-])c2)cc1O` (centres unmarked) [Example 10, 1-[2-Hydroxy-4-[2-hydroxy-3-(3-nitrophenoxy)propoxy]phenyl]ethanone], the inhibition at 100 µM in assay [1] (10^-4 M concentration, sensitized guinea pig trachea, read-out: percent inhibition in the Schultz-Dale reaction) was 62%. Further, the pEC50 in assay [1] (sensitized guinea pig trachea, read-out: EC50 in the Schultz-Dale reaction) is 4.12.

Consider `CCCc1c(OCC(O)COc2ccc3c(=O)cc(C(=O)[O-])oc3c2CCC)ccc(C(C)=O)c1O.[Na+]` (centres unmarked) [FPL 55712, sodium 7-[3-(4-acetyl-3-hydroxy-2-propylphenoxy)-2-hydroxypropoxy]-4-oxo-8-propyl-4H-1-benzopyran-2-carboxylate], for which the “antagonism of SRS-A” value in assay [2] is “specific antagonist of SRS-A”.

With `CCCc1c(OCC(O)COc2cccc(NC(=O)C(=O)O)c2C#N)ccc(C(C)=O)c1O` (centres unmarked) [Example 3, [[3-[-(4-Acetyl-3-hydroxy-2-propylphenoxy)-2-hydroxypropoxy]-2-cyanophenyl]amino]oxoacetic acid sodium salt], the inhibition at 100 µM in assay [3] turned out to be 22.9%. Moreover, the inhibition at 100 µM in assay [1] (setting [6]) is 62.1%. Besides, in assay [1] (1.5 h, at 90 minutes), the inhibition at 10 µM worked out at 21.5% and the inhibition at 1 µM was 12.8%. In addition, in assay [1] (setting [7]), the pEC50 was 4.28.

In the case of `CCCc1c(OCC(O)COc2cccc(N)c2)ccc(C(C)=O)c1O` (centres unmarked) [Example 4, 1-[2-Hydroxy-3-propyl-4-[2-hydroxy-3-(3-aminophenoxy)propoxy]phenyl]ethanone], the inhibition at 100 µM in assay [1] (setting [6]) worked out at 76.2%. Further, in assay [1] (1.5 h, at 90 minutes), the inhibition at 10 µM was 9.07% and the inhibition at 1 µM stood at 4.98%. Further, in assay [1] (setting [7]), the pEC50 is 4.44.

Consider `CCCc1c(OCC(O)CNc2cccc(N)c2C(N)=O)ccc(C(C)=O)c1O` (centres unmarked) [Example 9, 2-[3-(4-Acetyl-3-hydroxy-2-propylphenoxy)-2-hydroxypropyl]amino-6-aminobenzamide], for which, in assay [1] (setting [6]), the inhibition at 100 µM was 40.7%.

`CCCc1c(OCC(O)COc2cccc(NC(=O)C(=O)OCC)c2C#N)ccc(C(C)=O)c1O` (centres unmarked) [Example 2, [[3-[3-(4-Acetyl-3-hydroxy-2-propylphenoxy)-2-hydroxypropoxy]-2-cyanophenyl]amino]oxoacetic acid ethyl ester]: in assay [4], the Kb is 0.000398 µM. Moreover, the values for the inhibition at 100 µM in assay [3] and in assay [1] (setting [6]) were 65.5% and 73%, respectively. For the same molecule, the inhibition at 10 µM in assay [3] (10^-5 M) was 2.09%; in assay [1] (1.5 h, at 90 minutes), 63%. The inhibition at 1 µM in assay [1] (1.5 h, at 90 minutes) is 18.8%. Also, in assay [1] (setting [7]), the negative logarithm of the EC50 (pEC50) was 5.06.

Take `CCCc1c(OCC(O)CNc2cccc(NC(=O)C(=O)OCC)c2C#N)ccc(C(C)=O)c1O` (centres unmarked) [Example 7, [[[3-[3-(4-acetyl-3-hydroxy-2-propylphenoxy)-2-hydroxypropyl]amino]-2-cyanophenyl]amino]oxoacetic acid ethyl ester]: the inhibition at 100 µM in assay [1] (setting [6]) came out at 63.8%. For the same molecule, in assay [1] (1.5 h, at 90 minutes), the inhibition at 10 µM is 39.3% and the inhibition at 1 µM amounted to 2.64%. For the same molecule, the pEC50 in assay [1] (setting [7]) was 4.52.

For `CCCc1c(OCC(O)COc2cccc(NC(=O)C(=O)OCC)c2)ccc(C(C)=O)c1O` (centres unmarked) [Example 5, [[3-[3-(4-Acetyl-3-hydroxy-2-propylphenoxy)-2-hydroxypropoxy]phenyl]amino]oxoacetic acid ethyl ester], the inhibition at 100 µM in assay [1] (setting [6]) is 53%. In addition, in assay [1] (1.5 h, at 90 minutes), the inhibition at 10 µM worked out at 22.8% and the inhibition at 1 µM was found to be 8.57%. In addition, in assay [1] (setting [7]), the negative logarithm of the EC50 (pEC50) was 4.01.

On to `CCCc1c(OCC(O)CNc2cccc([N+](=O)[O-])c2C#N)ccc(C(C)=O)c1O` (centres unmarked) [2-[[3-(4-acetyl-3-hydroxy-2-propylphenoxy)-2-hydroxypropyl]amino]-6-nitrobenzonitrile], for which the “effect on anaphylactic tissue response” value in assay [5] is “potentiator of the anaphylactic tissue response”.

Take `CCCc1c(OCC(O)COc2cccc(N)c2C#N)ccc(C(C)=O)c1O` (centres unmarked) [Example 1, 2-[3-(4-Acetyl-3-hydroxy-2-propylphenoxy)-2-hydroxypropoxy]-6-aminobenzonitrile]: in assay [1] (setting [6]), the inhibition at 100 µM was found to be 64.2%. For the same molecule, in assay [1] (1.5 h, at 90 minutes), the inhibition at 10 µM was 45.7% and the inhibition at 1 µM was found to be 20.6%. The pEC50 in assay [1] (setting [7]) is 4.70.

(Values after patent publication US4448729A, “Leucotriene antagonists” (American Home Products Corporation, priority 1982, dated 1984).)
